Results: patent publication US9205070B2, “Chelation suppository for improved drug delivery” (APPLIED BIORESEARCH, INC., priority 2013, dated 2015)
Read-outs that look alike come from different tables or passages of the source.

Columns and labels:
[1] = aqueous composition containing MBK, pH 7.0 and pH 9.6, after 5 hours
Procedure: Cells in the digestive track, such as CACO-2 cells are typically used to model absorption in the small intestine. CACO-2 cells, developed by the Sloan-Kettering Institute from human epithelial colorectal adenocarcinoma cells, are widely used to predict drug absorption. […] permeability assay (PAMPA) uses an artificial cell membrane to model drug permeability. In either test, the drug is dissolved in an aqueous solution mimicking the target gastric fluid. The fluid is contacted with the membrane, and the passage of the drug through the membrane over a period of time is used to assess permeability.
PAMPA measures how quickly the drug can exit a water-solvated environment and pass through a cell membrane. Since most drugs are hydrophobic, it is expected that there will be significant absorption by the cells lining the digestive tract.

[2] = rat
Source text: The conclusive measure of bioavailability is to measure the drug blood levels (or levels in some other body fluid) after administration to human test subjects.
See Rabau M Y, Baratz M, Rozen P, “Na2 ethylenediaminetetraacetic acid retention enema in dogs. Biochemical and histological response”.

[3] = dogs, aqueous solution, rectal; cited from earlier work
[4] = Group C, rectal suppository with MBK excipient, mean

| SMILES | passage of drug through the artificial cell membrane [1] | AUC ([2]; Group B, intravenous, mean) [ng·h/mL] | AUC Inf ([2]; Group B, intravenous, mean) [ng·h/mL] | Cmax ([2]; Group B, intravenous, mean) [ng/mL] | Halflife ([2]; Group B, intravenous, mean) [min] | Tmax ([2]; Group B, intravenous, mean) [min] | AUC [2, 4] [ng·h/mL] | AUC Inf [2, 4] [ng·h/mL] | Cmax [2, 4] [ng/mL] | drug absorbed ([2]; suppository with MBK as the excipient, within eight hours) | absorption [3] [%] |
| --- | --- | --- | --- | --- | --- | --- | --- | --- | --- | --- | --- |
| O=C([O-])CN(CCN(CC(=O)[O-])CC(=O)[O-])CC(=O)[O-].[Ca+2].[Na+].[Na+] [CaNa2EDTA, calcium disodium ethylenediaminetetraacetate] | no drug was found to have passed through the artificial cell membrane | 1860 | 1910 | 2070 | 90 | 4.98 | 105800 | 307300 | 30600 | over 36.3% |  |
| O=C(O)CN(CCN(CC(=O)O)CC(=O)O)CC(=O)O [EDTA] |  |  |  |  |  |  |  |  |  |  | ~13 |
